Data taken from US12691101B2, “Compound and method for preventing or treating of respiratory diseases comprising the same as an active ingredient” (YONSEI UNIVERSITY, UNIVERSITY - INDUSTRY FOUNDATION (UIF), priority 2019, dated 2026).
“Also recorded” adds a separate entry of the source. Where two headings read alike, the source gives them in different places.

Columns and labels:
[1] = molecular target: T1, human wild-type (WT)-pendrin (Homo sapiens, UniProt O43511); experiment: Pendrin-mediated Cl^−/I^− exchange activity, YFP fluorescence in CHO-K1 cells; assay type: cell-based; details: for inhibition at 30 µM: CHO-K1, 30 μM, read-out: Pendrin inhibitory activity at 30 μM (%); for inhibition of pendrin Cl^−/I^− exchange activity: CHO-K1 cells, pretreated 10 minutes
T1 construct: expressed in transfected cells
T1 sequence (O43511 1-780): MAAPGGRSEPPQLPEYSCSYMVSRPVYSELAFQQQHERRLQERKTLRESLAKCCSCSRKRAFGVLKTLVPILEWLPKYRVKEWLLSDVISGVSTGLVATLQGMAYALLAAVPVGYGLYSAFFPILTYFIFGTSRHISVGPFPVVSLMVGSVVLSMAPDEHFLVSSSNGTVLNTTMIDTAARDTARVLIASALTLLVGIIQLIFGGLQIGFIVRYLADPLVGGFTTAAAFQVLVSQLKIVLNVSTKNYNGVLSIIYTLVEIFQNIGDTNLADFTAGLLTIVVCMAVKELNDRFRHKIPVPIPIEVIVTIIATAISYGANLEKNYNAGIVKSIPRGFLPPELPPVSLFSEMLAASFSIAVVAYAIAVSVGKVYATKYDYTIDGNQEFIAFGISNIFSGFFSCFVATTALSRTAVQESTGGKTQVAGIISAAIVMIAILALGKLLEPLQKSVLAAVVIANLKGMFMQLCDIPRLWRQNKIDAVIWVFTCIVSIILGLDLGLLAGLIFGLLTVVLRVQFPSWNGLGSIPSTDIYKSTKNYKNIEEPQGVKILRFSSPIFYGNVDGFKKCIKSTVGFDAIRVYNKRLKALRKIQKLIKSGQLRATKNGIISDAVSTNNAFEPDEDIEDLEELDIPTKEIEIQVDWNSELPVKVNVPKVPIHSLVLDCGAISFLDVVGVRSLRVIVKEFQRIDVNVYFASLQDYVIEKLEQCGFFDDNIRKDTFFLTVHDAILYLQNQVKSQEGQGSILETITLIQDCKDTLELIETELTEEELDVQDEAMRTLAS

[2] = test system: CHO-K1 cells; experiment: Cell viability, MTS colorimetric analysis, CHO-K1; assay type: cell-based, Chinese hamster; details: 24 hours, up to 30 μM
Experimental: (A) Pendrin-mediated Cl^−/I^− exchange activity (mean±S.E., n=5). The indicated concentration of F56 was pretreated for 10 minutes. (B, C) Representative tracing of intracellular pH. The application of Cl^− free solution induced intracellular alkalization through pendrin-mediated Cl^−/HCO3^− and Cl^−/OH^− exchange activity. The indicated concentration of F56 was pretreated for 10 minutes. (D-F) The pendrin-mediated Cl^−/I^− exchange activity was measured in CHO-K1 cells expressing human pendrin. The indicated concentration of F56, PDSinh-A01 and PDSinh-C01 was pretreated for 10 minutes. (G) Summary of dose-response of F56, PDSinh-A01 and PDSinh-C01 (mean±S.E., n=3). (H, I) Effect of F56, PDSinh-A01 and PDSinh-C01 on the cell viability in NIH3T3 (H) and CHO-K1 (I) cells. The cells were treated with F56, PDSinh-A01 and PDSinh-C01 for 24 hours. The cell viability was measured by MTS colorimetric analysis (mean±S.E., n=3). NTC, non-transfected cells.
The cells were treated with F10 for 24 hours. The cell viability was determined by MTS colorimetric analysis (mean±S.E., n=3).

[3] = compounds showing pendrin inhibitory activity of 50% or more at 30 μM, read-out: IC50

IC50 ([1]; FIG. 4(a), read-out: 50% inhibition of Cl^−/I^− exchange activity) [µM]	SMILES	inhibition at 30 µM [1] [%]	inhibition of pendrin Cl^−/I^− exchange activity [1]	IC50 ([1]; FIG. 4(b), read-out: inhibitory effect on the Cl—/I— exchange activity: IC50) [µM]	IC50 [1, 3] [µM]	cytotoxicity in CHO-K1 cells [2]
–	CC(C)(C)c1ccc(C2=NC(=Cc3ccc[nH]3)C(=O)O2)cc1 [F10, 4-((1H-pyrrol-2-yl)methylene)-2-(4-(tert-butyl)phenyl)oxazol-5 (4H)-one]	100	strongly inhibit	~0.08	0.08 ± 0.02	did not show any cytotoxicity up to 30 μM
~3	CC(C)(C)c1ccc(C2=NC(=Cc3cccs3)C(=O)O2)cc1 [F56, 2-(4-(tert-butyl)phenyl)-4-(thiophen-2-ylmethylene)oxazol-5(4H)-one]	84.7	significantly inhibited; also recorded: strongly inhibited	–	3.3 ± 0.64	did not show cytotoxicity up to 30 μM
